Key:
CDK9/cyclin T1 = CDK9/cyclin T1 (Homo sapiens, UniProt P50750); experiment: Inhibition of human recombinant CDK9/cyclin T expressed in baculovirus-infected insect cells
HeLa = experiment: Antiproliferative activity against human HeLa cells after 72 hrs by ViaLight assay; format: functional, cell-based
SW-620 = experiment: cells; details: Homo sapiens, SW-620, 72 h
Description: Antiproliferative activity against human SW620 cells after 72 hrs by ViaLight assay

UACC-257 = experiment: Antiproliferative activity against human UACC257 cells after 72 hrs by ViaLight assay; format: functional; details: UACC-257, 72 h
HEK-293T = experiment: Antiproliferative activity against human 293T cells after 72 hrs by ViaLight assay; format: functional, cell-based
OVCAR-8 = experiment: Antiproliferative activity against human OVCAR8 cells after 72 hrs by ViaLight assay; format: functional; details: OVCAR-8, 72 h
SK-MEL-28 = experiment: Antiproliferative activity against human SK-MEL-28 cells after 72 hrs by ViaLight assay; format: functional; details: SK-MEL-28, 72 h
BT-549 = experiment: Antiproliferative activity against human BT549 cells after 72 hrs by ViaLight assay; format: functional; details: BT-549, 72 h
U-937 = experiment: Antiproliferative activity against human U937 cells after 72 hrs by ViaLight assay; format: functional, cell-based
CCRF-CEM = experiment: cells; details: Homo sapiens, 72 h
Description: Antiproliferative activity against human CCRF-CEM cells after 72 hrs by ViaLight assay

[1] = read-out: LC50 (the source's name)
[2] = read-out: pLC50 (the source's name) (converted)

Chain of CDK9/cyclin T1 (O60563 whole entry): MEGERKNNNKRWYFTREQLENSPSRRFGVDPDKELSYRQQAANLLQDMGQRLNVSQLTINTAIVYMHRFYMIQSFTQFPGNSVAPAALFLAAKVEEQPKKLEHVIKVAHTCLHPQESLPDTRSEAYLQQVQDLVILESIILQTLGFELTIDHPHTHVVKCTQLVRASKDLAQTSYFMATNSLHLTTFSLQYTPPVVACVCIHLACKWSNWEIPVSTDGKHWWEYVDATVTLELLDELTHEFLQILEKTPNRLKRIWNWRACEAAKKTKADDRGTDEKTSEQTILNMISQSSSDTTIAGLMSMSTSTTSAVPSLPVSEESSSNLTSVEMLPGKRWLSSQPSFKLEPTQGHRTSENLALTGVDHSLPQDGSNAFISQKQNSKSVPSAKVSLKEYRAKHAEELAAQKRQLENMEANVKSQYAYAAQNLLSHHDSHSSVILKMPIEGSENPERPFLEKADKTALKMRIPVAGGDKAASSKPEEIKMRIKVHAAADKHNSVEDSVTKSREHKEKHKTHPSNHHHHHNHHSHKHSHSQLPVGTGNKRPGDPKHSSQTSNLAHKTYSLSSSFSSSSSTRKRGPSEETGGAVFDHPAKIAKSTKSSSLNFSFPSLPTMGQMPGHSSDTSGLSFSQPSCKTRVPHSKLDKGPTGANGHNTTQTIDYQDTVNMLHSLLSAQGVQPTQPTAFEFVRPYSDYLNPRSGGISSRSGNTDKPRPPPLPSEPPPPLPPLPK
Chain of CDK9/cyclin T1 (P50750 whole entry): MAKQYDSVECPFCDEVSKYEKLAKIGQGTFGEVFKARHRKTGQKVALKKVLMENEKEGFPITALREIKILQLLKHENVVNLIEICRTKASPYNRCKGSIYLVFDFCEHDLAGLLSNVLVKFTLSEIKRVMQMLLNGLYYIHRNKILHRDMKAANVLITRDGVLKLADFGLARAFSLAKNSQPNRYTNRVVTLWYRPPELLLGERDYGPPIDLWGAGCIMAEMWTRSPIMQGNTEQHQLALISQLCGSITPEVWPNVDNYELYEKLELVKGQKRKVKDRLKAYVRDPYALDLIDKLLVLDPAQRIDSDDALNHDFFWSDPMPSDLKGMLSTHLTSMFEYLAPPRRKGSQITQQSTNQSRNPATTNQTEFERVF

SMILES: CC[C@H](CO)Nc1nc(NCc2ccccc2)n2ncc(C(C)C)c2n1
- IC50 (CDK9/cyclin T1): 0.043 µM
- Activity (HeLa): Dose-dependent effect
- GI50 (SW-620): 1.38 µM
- TGI (SW-620): 5.56 µM
- CC50 (SW-620; read-out: LC50): > 100 µM
- GI50 (SW-620; read-out: pGI50 (converted)): 1.12 µM
- CC50 (SW-620; read-out: pLC50 (converted)): 100 µM
- TGI (SW-620; read-out: pTGI): 5.5 µM
- GI50 (UACC-257; read-out: GI50): 3.56 µM
- CC50 (UACC-257; [1]): > 100 µM
- TGI (UACC-257; read-out: TGI): 15 µM
- GI50 (UACC-257; read-out: pGI50 (converted)): 3.24 µM
- CC50 (UACC-257; [2]): 100 µM
- TGI (UACC-257; read-out: pTGI (converted)): 24 µM
- Activity (HEK-293T): Dose-dependent effect
- GI50 (OVCAR-8; read-out: GI50): 2.15 µM
- CC50 (OVCAR-8; [1]): > 100 µM
- TGI (OVCAR-8; read-out: TGI): 54.8 µM
- GI50 (OVCAR-8; read-out: pGI50 (converted)): 2.45 µM
- CC50 (OVCAR-8; [2]): 100 µM
- TGI (OVCAR-8; read-out: pTGI (converted)): 55 µM
- GI50 (SK-MEL-28; read-out: GI50): 1.16 µM
- CC50 (SK-MEL-28; [1]): 16.9 µM
- TGI (SK-MEL-28; read-out: TGI): 3.82 µM
- GI50 (SK-MEL-28; read-out: pGI50 (converted)): 1.15 µM
- CC50 (SK-MEL-28; [2]): 17 µM
- TGI (SK-MEL-28; read-out: pTGI (converted)): 3.8 µM
- GI50 (BT-549; read-out: GI50): 1.56 µM
- CC50 (BT-549; [1]): 36.1 µM
- TGI (BT-549; read-out: TGI): 5.29 µM
- GI50 (BT-549; read-out: pGI50 (converted)): 2.45 µM
- CC50 (BT-549; [2]): 36.3 µM
- TGI (BT-549; read-out: pTGI): 5.25 µM
- Activity (U-937): Dose-dependent effect
- GI50 (CCRF-CEM): 0.65 µM
- TGI (CCRF-CEM): 9.26 µM
- CC50 (CCRF-CEM; read-out: LC50): > 100 µM
- GI50 (CCRF-CEM; read-out: pGI50 (converted)): 0.646 µM
- CC50 (CCRF-CEM; read-out: pLC50 (converted)): 100 µM
- TGI (CCRF-CEM; read-out: pTGI): 9.33 µM
